Legend:
[1] = Sweetness tasting by a panel of five people, compared with sucrose solution
Experimental: Iso-rebaudioside A from the x-ray crystallography sample of Example 3 was dissolved in water at a concentration of 1000 ppm, and was found by a panel of five people to have a sweetness intensity similar to that of a 7% sucrose solution; therefore its sweetness potency was estimated to be 70 times that of sucrose.

[2] = Stability/degradation in aqueous citric acid or citrate buffer under heat, followed by HPLC; type: physicochemical
Experimental: […] reactions were set up under identical conditions as in Example 3 except for temperatures: 43° C., 65° C., 75° C., 85° C., and 90° C. reactions were set up and followed by HPLC-MS or UV (210 nm) detection.
Two studies were performed on the pH dependency of the synthesis of iso-rebaudioside A (Cmpd X) from rebaudioside A (Reb A). Rebaudioside A was dissolved at the same concentration in a series of aqueous citric acid solutions, each having a different pH. The solutions were heated to 43° C. for 11 weeks. One study was performed with solutions at pH 2.0, 4.0, and 7.0. The other study was performed with solutions at pH 2.5, 3.0, and 3.5. Results of the two studies are shown in FIGS. 17 and 18, respectively, wherein Reb A stands for rebaudioside A and Cmpd X stands for iso-rebaudioside A. In FIG. 17, the concentration of iso-rebaudioside A at pH 2 peaks at week 9 and decreases afterwards.

[3] = cited from earlier work; for stability under acidic conditions at 60° C.: pH 2.4 to 2.6, 60° C.; for stability under acidic conditions at 100° C.: pH 2.4 to 2.6, 100° C., yields hydrolysis byproducts

Structure (SMILES) | sweetness intensity, equivalent sucrose solution ([1]; 1000 ppm in water, panel of five people) | sweetness potency relative to sucrose ([1]; estimated from 1000 ppm vs 7% sucrose) | degradation in acidic solution ([2]; pH 2) | time of peak concentration before decrease (degradation) ([2]; pH 2) | stability under acidic conditions at 60° C. [3] | stability under acidic conditions at 100° C. [3] | degradation in acidic solution ([2]; aqueous citric acid pH 2, 43° C., after week 9) | hydrolysis at elevated temperatures ([2]; citrate buffer pH 2, 43° C. to 90° C., HPLC-MS)
CC1=CC23CCC4C(C)(C(=O)OC5OC(CO)C(O)C(O)C5O)CCCC4(C)C2CCC1(OC1OC(CO)C(O)C(OC2OC(CO)C(O)C(O)C2O)C1OC1OC(CO)C(O)C(O)C1O)C3 (stereo not shown) [iso-rebaudioside A] | ~7 % sucrose solution | 70 times that of sucrose | degraded/hydrolyzed into other steviol glycoside isomers | 9 week |  |  |  | 
C=C1C[C@@]23CC[C@H]4[C@@](C)(CCC[C@@]4(C)C(=O)O[C@@H]4O[C@H](CO)[C@@H](O)[C@H](O)[C@H]4O)[C@@H]2CC[C@]1(O[C@@H]1O[C@H](CO)[C@@H](O)[C@H](O)[C@H]1O[C@@H]1O[C@H](CO)[C@@H](O)[C@H](O)[C@H]1O)C3 [stevioside] |  |  |  |  | quite stable | undergo drastic changes |  | 
C=C1C[C@@]23CC[C@H]4[C@@](C)(CCC[C@@]4(C)C(=O)O[C@@H]4O[C@H](CO)[C@@H](O)[C@H](O)[C@H]4O)[C@@H]2CC[C@]1(O[C@@H]1O[C@H](CO)[C@@H](O)[C@H](O[C@@H]2O[C@H](CO)[C@@H](O)[C@H](O)[C@H]2O)[C@H]1O[C@@H]1O[C@H](CO)[C@@H](O)[C@H](O)[C@H]1O)C3 [rebaudioside A] |  |  |  |  | quite stable | undergo drastic changes | continues to decrease after week 9 | extensive hydrolysis occurred
